Results as given in US9023789B2, “Amylin analogs and pharmaceutical compositions thereof” (Novo Nordisk A/S, priority 2012, dated 2015).
In brackets after ≈: the same amount, converted by molar mass. Read-outs that look alike come from different tables or passages of the source. Numbered stars: 1 amine (or outer) side, 2 acyl side, 3 side chain; on linkers, the order of the positions; unused ones are H or OH. Bridge positions count the residues as written; N and C are the ends. Side chains are listed from the residue outwards. Peptide text beside a SMILES is read from it. * marks the point of attachment. C20 diacid = O=C(O)CCCCCCCCCCCCCCCCCCC(=O)*; γGlu = O=C(O)[C@H](CCC(=O)[*:2])N[*:1]; AEEA = NCCOCCOCC(=O)O

Legend:
[1] = ASSAY (IV) determination of solubility; type: physicochemical
In short: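 Samples of polypeptide, prepared from a water stock at […] and diluted 1:1 into 100 mM buffers spanning pH 3.0 to 8.0, stood 18 hours at room temperature. Polypeptide concentration was then determined by UPLC following centrifugation.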

[2] = target: T1, human amylin receptor (membranes from Amylin 3(a)/CRE-luc cells) (Homo sapiens, UniProt O60896+P30988); assay: ASSAY (V) binding to the human amylin receptor (SPA, 125I-rat amylin);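 note: competition binding of cell membranes (35 ng/µL) mixed with SPA beads in 384-well plates at 40 µL total volume, read by scintillation counting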
T1 construct: expressed in transfected cells
T1 sequence (P30988 25-474): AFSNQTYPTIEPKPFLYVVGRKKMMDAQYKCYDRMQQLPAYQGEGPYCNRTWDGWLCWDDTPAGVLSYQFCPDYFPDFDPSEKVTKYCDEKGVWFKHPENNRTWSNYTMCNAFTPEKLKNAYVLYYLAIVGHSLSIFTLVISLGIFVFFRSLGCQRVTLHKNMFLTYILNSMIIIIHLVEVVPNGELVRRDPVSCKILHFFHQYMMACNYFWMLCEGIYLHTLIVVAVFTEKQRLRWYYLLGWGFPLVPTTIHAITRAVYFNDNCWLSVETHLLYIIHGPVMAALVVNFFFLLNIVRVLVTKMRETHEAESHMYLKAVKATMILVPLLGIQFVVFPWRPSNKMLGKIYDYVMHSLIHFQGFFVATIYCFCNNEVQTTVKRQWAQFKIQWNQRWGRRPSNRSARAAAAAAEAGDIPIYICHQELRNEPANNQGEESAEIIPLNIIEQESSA
T1 sequence (O60896 24-148 partner): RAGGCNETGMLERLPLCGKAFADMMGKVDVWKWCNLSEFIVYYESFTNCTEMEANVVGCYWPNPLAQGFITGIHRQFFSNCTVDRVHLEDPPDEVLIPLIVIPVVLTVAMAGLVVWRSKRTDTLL

[3] = tested on: Sprague Dawley (SD) rats; assay: ASSAY (I) efficacy testing on appetite (food intake) using an ad libitum fed rat model; type: in vivo; conditions: rat, 30 nmol/kg
In short: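 Individual food consumption was logged each hour up to 7 h and again at 24 h, occasionally 48 h, with Grubbs-test outliers removed. Each 200–250 g Sprague Dawley rat, free-feeding in its home cage under reversed lighting, received a single ip, po or sc dose of 0.01–3 mg/kg at lights-off, alongside a vehicle group.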

[4] = target: T2, rat amylin receptor (rat calcitonin receptor + rat RAMP 3) (Rattus norvegicus, UniProt P32214+Q9JJ73); assay: ASSAY (VI) binding to the rat amylin receptor; conditions: for IC50: binding to rat amylin receptor, read-out: rAmylin-R bind IC50
T2 construct: expressed in transfected cells; host or cells: BHK tk'ts 13 (transient, FuGENE 6), membranes
T2 sequence (P32214 25-479 isoform P32214-2 limits assumed): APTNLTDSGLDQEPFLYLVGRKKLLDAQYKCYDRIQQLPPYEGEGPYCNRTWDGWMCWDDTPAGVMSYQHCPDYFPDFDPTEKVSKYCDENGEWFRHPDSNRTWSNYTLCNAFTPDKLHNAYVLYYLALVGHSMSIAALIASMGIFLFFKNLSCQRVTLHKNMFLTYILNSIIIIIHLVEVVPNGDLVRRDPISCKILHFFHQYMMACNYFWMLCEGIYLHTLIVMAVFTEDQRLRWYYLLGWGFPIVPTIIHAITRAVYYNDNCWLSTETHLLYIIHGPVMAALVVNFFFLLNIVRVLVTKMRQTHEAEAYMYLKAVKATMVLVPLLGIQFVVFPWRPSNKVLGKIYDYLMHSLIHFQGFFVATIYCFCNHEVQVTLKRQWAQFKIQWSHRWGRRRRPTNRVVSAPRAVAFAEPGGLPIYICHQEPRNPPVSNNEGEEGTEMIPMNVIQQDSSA
T2 sequence (Q9JJ73 23-147 partner): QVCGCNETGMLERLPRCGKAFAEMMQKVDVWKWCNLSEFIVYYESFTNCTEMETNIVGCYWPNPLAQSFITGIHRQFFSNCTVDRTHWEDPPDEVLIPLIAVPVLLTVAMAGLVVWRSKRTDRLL
In short: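 The cell-membrane assay assessed binding at the rat amylin receptor. BHK tk′ts 13 cells were transfected transiently with rat calcitonin receptor, with FuGENE® 6 (Roche) as the transfection reagent, used per the manufacturer's recommendations. Approximately 48 hours after transfection the cells were harvested, and membranes were prepared for measuring binding.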

[5] = target: T3, rat calcitonin receptor (Rattus norvegicus, UniProt P32214); assay: ASSAY (VIII) binding to the rat calcitonin receptor; conditions: Table 7, read-out: rCTR bind IC50
T3 construct: expressed in transfected cells; host or cells: BHK tk'ts 13 (transient, FuGENE 6), membranes
T3 sequence (P32214 25-479 isoform P32214-2 limits assumed): T2 sequence (P32214 25-479 isoform P32214-2 limits assumed)
In short: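 Cell membranes for binding came from BHK tk′ts 13 cells harvested approximately 48 hours after transient transfection with the rat receptor.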

[6] = bistrispropane buffer, pH 6.5, read-out: Solubility pH 6.5 Concentration
[7] = bistrispropane buffer, pH 7.5, read-out: Solubility pH 7.5 Concentration
[8] = bistrispropane buffer, pH 6.0, read-out: Solubility pH 6.0 Concentration
[9] = bistrispropane buffer, pH 7.0, read-out: Solubility pH 7.0 Concentration
[10] = bistrispropane buffer, pH 8.0, read-out: Solubility pH 8.0 Concentration
[11] = glycylglycine buffer, pH 3.0, read-out: Solubility pH 3.0 Concentration
[12] = glycylglycine buffer, pH 4.0, read-out: Solubility pH 4.0 Concentration
[13] = glycylglycine buffer, pH 5.0, read-out: Solubility pH 5.0 Concentration
[14] = Table 5, selectivity, hCTR bind IC50 / hAmylin-R bind IC50
[15] = Table 5a, selectivity, hCTR bind IC50 / hAmylin-R bind IC50
[16] = Table 5b, selectivity, hCTR bind IC50 / hAmylin-R bind IC50
[17] = Table 5c, selectivity, hCTR bind IC50 / hAmylin-R bind IC50
[18] = Table 7, human binding selectivity, included for comparison
[19] = Table 7a (preferred compounds), human binding selectivity, included for comparison
[20] = ratio of human calcitonin receptor binding IC50 to human amylin receptor binding IC50
[21] = Table 7, rat binding selectivity, rCTR IC50 / rAmylin-R IC50
[22] = Table 7a (preferred compounds), rat binding selectivity, rCTR IC50 / rAmylin-R IC50
[23] = ratio of rCTR bind IC50 to rAmylin-R bind IC50

SMILES | solubility at 18 h [1, 6] [µM] | solubility at 18 h [1, 7] [µM] | solubility at 18 h [1, 8] [µM] | solubility at 18 h [1, 9] [µM] | solubility at 18 h [1, 10] [µM] | solubility at 18 h [1, 11] [µM] | solubility at 18 h [1, 12] [µM] | solubility at 18 h [1, 13] [µM] | Ratio hCT/hAmylin binding [2, 14] | Ratio hCT/hAmylin binding [2, 15] | Ratio hCT/hAmylin binding [2, 16] | Ratio hCT/hAmylin binding [2, 17] | Ratio hCT/hAmylin binding [2, 18] | Ratio hCT/hAmylin binding [2, 19] | Ratio hCT/hAmylin binding [2, 20] | Food intake reduction 0-24 h 30 nmol/kg (%) [3] [%] | Food intake reduction 24-48 h 30 nmol/kg (%) [3] [%] | IC50 ([4]; Table 7) [nM] | Ratio rCT/rAmylin binding [4, 21] | Ratio rCT/rAmylin binding [4, 22] | also measured
CC[C@H](C)[C@H](NC(=O)[C@H](C)NC(=O)CNC(=O)[C@H](Cc1ccccc1)NC(=O)[C@H](CC(N)=O)NC(=O)[C@@H]1CCCN1C(=O)[C@H](CO)NC(=O)[C@H](CO)NC(=O)[C@H](Cc1c[nH]cn1)NC(=O)[C@H](CCCNC(=N)N)NC(=O)[C@H](CC(C)C)NC(=O)[C@H](Cc1ccccc1)NC(=O)[C@H](CC(N)=O)NC(=O)[C@H](C)NC(=O)[C@H](CC(C)C)NC(=O)[C@H](CCCNC(=N)N)NC(=O)[C@H](CCC(N)=O)NC(=O)[C@@H](NC(=O)[C@H](C)NC(=O)[C@@H]1CSSC[C@H](NC(=O)[C@H](CCCNC(=N)N)NC(=O)CNC(=O)CC[C@H](NC(=O)CCCCCCCCCCCCCCCCCCC(=O)O)C(=O)O)C(=O)N[C@@H](CC(N)=O)C(=O)N[C@@H]([C@@H](C)O)C(=O)N[C@@H](C)C(=O)N[C@@H]([C@@H](C)O)C(=O)N1)[C@@H](C)O)C(=O)N1CCC[C@H]1C(=O)N[C@@H](CO)C(=O)N[C@@H](CO)C(=O)N[C@H](C(=O)N[C@@H](CC(N)=O)C(=O)N[C@H](C(=O)NCC(=O)N[C@@H](CO)C(=O)N[C@@H](Cc1c[nH]cn1)C(=O)N[C@H](C(=O)N[C@@H](Cc1ccc(O)cc1)C(N)=O)[C@@H](C)O)C(C)C)[C@@H](C)O [Example 47] ({C20 diacid-γGlu}-GRCNTATCATQRLANFLRHSSPNFGAIPSSTNVGSHTY-NH2; disulfide 3-8) | ≥ 200 | 50 (≈ 224 µg/mL) | ≥ 200 | ≥ 200 | 68 (≈ 305 µg/mL) | ≥ 200 | ≥ 200 | ≥ 200 | 44.9 | 44.9 | 44.9 | 44.9 | 44.9 | 44.9 | 44.9 | 51 | 0 | 0.203 | 84.3 | 84.3 | Ratio rCT/rAmylin binding [4, 23]: 84.3; IC50 [5]: 17.1 nM
CC[C@H](C)[C@H](NC(=O)[C@H](C)NC(=O)CNC(=O)[C@H](Cc1ccccc1)NC(=O)[C@H](CC(N)=O)NC(=O)[C@@H]1CCCN1C(=O)[C@H](CO)NC(=O)[C@H](CO)NC(=O)[C@H](Cc1c[nH]cn1)NC(=O)[C@H](CCCNC(=N)N)NC(=O)[C@H](CC(C)C)NC(=O)[C@H](Cc1ccccc1)NC(=O)[C@H](Cc1c[nH]cn1)NC(=O)[C@H](C)NC(=O)[C@H](CC(C)C)NC(=O)[C@H](CCCNC(=N)N)NC(=O)[C@H](CCC(N)=O)NC(=O)[C@@H](NC(=O)[C@H](C)NC(=O)[C@@H]1CSSC[C@H](NC(=O)[C@@H](N)CCCCNC(=O)COCCOCCNC(=O)CC[C@H](NC(=O)CCCCCCCCCCCCCCCCCCC(=O)O)C(=O)O)C(=O)N[C@@H](CC(N)=O)C(=O)N[C@@H]([C@@H](C)O)C(=O)N[C@@H](C)C(=O)N[C@@H]([C@@H](C)O)C(=O)N1)[C@@H](C)O)C(=O)N1CCC[C@H]1C(=O)N[C@@H](CO)C(=O)N[C@@H](CO)C(=O)N[C@H](C(=O)N[C@@H](CC(N)=O)C(=O)N[C@H](C(=O)NCC(=O)N[C@@H](CCCNC(=N)N)C(=O)N[C@@H](CC(N)=O)C(=O)N[C@H](C(=O)N[C@@H](Cc1ccc(O)cc1)C(N)=O)[C@@H](C)O)C(C)C)[C@@H](C)O [Example 84] (H-K([AEEA-γGlu-C20 diacid])CNTATCATQRLAHFLRHSSPNFGAIPSSTNVGRNTY-NH2; disulfide 2-7 (inferred); N-terminus assumed) | ≥ 200 | ≥ 200 | ≥ 200 | ≥ 200 | ≥ 200 | ≥ 200 | ≥ 200 | ≥ 200 | 119.6 | 119.6 | 119.6 | 119.6 | 119.6 | 119.6 | 119.6 | 10 | 0 | 5.05 | 94.3 | 94.3 | IC50 ([2]; Table 4, read-out: hAmylin-R bind IC50): 0.743 nM; Ratio rCT/rAmylin binding [4, 23]: 94.3; IC50 [5]: 477 nM
CC[C@H](C)[C@H](NC(=O)[C@H](C)NC(=O)CNC(=O)[C@H](Cc1ccccc1)NC(=O)[C@H](CC(N)=O)NC(=O)[C@@H]1CCCN1C(=O)[C@H](CO)NC(=O)[C@H](CO)NC(=O)[C@H](Cc1c[nH]cn1)NC(=O)[C@H](CCCNC(=N)N)NC(=O)[C@H](CC(C)C)NC(=O)[C@H](Cc1ccccc1)NC(=O)[C@H](Cc1c[nH]cn1)NC(=O)[C@H](C)NC(=O)[C@H](CC(C)C)NC(=O)[C@H](CCCNC(=N)N)NC(=O)[C@H](CCC(N)=O)NC(=O)[C@@H](NC(=O)[C@H](C)NC(=O)[C@@H]1CSSC[C@H](NC(=O)[C@@H](N)CCCCNC(=O)COCCOCCNC(=O)CC[C@H](NC(=O)CCCCCCCCCCCCCCCCCCC(=O)O)C(=O)O)C(=O)N[C@@H](CC(N)=O)C(=O)N[C@@H]([C@@H](C)O)C(=O)N[C@@H](C)C(=O)N[C@@H]([C@@H](C)O)C(=O)N1)[C@@H](C)O)C(=O)N1CCC[C@H]1C(=O)N[C@@H](CO)C(=O)N[C@@H](CO)C(=O)N[C@H](C(=O)N[C@@H](CC(N)=O)C(=O)N[C@H](C(=O)NCC(=O)N1CCC[C@H]1C(=O)N[C@@H](CC(N)=O)C(=O)N[C@H](C(=O)N[C@@H](Cc1ccc(O)cc1)C(N)=O)[C@@H](C)O)C(C)C)[C@@H](C)O [Example 68] (H-K([AEEA-γGlu-C20 diacid])CNTATCATQRLAHFLRHSSPNFGAIPSSTNVGPNTY-NH2; disulfide 2-7) | ≥ 200 | 193 (≈ 880 µg/mL) | ≥ 200 | ≥ 200 | 138 (≈ 631 µg/mL) | ≥ 200 | ≥ 200 | ≥ 200 | 64.4 | 64.4 | 64.4 | 64.4 | 64.4 | 64.4 | 64.4 | 33 | 0 | 0.234 | 121.9 | 121.9 | Ratio rCT/rAmylin binding [4, 23]: 121.9; IC50 [5]: 28.5 nM
